Patent US9399030B2, “Topically applied circulation enhancing agent and skin and hair cosmetic and bath agent containing the same” (AJINOMOTO CO., INC., priority 2005, dated 2016)

Legend:
conchae of hairless mice = assay: Vasodilating effect on the conchae of hairless mice, visual evaluation of red spots (Examples 2 and 4); format: in vivo, hairless mouse (HR-1, female); conditions: for Remarks: vasodilating effect: in liquid paraffin; for Activity compared with capsiate: statement in the description; for Vasodilating effect, 5 wt %: 5 wt % in liquid paraffin; for Vasodilating effect, 5 wt % / Vasodilating effect, 1 wt %: symbols not defined in the patent; for Vasodilating effect, 1 wt %: 1 wt % in liquid paraffin
From the text: The vasodilating effects of capsinoids (a mixed product prepared by the method stated in Reference Example (5) was employed; see below) and capsaicin was compared using the conchae of hairless mice.
Test Method: A sample was applied on the right ear and a control was applied on the left ear of a hairless mouse (HR-1, female), and the development of red spots was visually evaluated.
Sample: (1) Capsinoids (1 weight percent and 5 weight percent dissolved in liquid paraffin)
(2) Capsaicin (1 weight percent and 5 weight percent dispersed in liquid paraffin)
(§1) In the same manner as in Example 2, the vasodilating effects of various capsinoid compounds were compared using the conchae of hairless mice. The samples were dissolved in liquid paraffin.

[1] = Dissolution of the sample in liquid paraffin (Example 4); format: physicochemical
Experimental: as §1

Row | Compound | Remarks: vasodilating effect (conchae of hairless mice) | Activity compared with capsiate (conchae of hairless mice) | Vasodilating effect, 5 wt % (conchae of hairless mice) | further results
1 | CC/C=C\C/C=C\C/C=C\CCCCCCCC(=O)OCc1ccc(O)c(OC)c1 [Vanillyl linolenate] | No vasodilating effect |  |  | 
2 | CCCCCCCCC(=O)OCc1ccc(O)c(OC)c1 [vanillyl nonanoate, 4-hydroxy-3-methyloxybenzyl nonanoate] |  | about the same degree of activity as capsiate |  | 
3 | CCCCCCCC(=O)OCc1ccc(O)c(OC)c1 [Vanillyl octanoate, 4-hycroxy-3-methoxybenzyl octanoate] |  | about the same degree of activity as capsiate | ◯ | Remarks: disappearance of the vasodilating effect (conchae of hairless mice; concentration not given): Vasodilating effect disappeared in about one hour
4 | CCC(C)CCCCCCC(=O)OCc1ccc(O)c(OC)c1 (centres unmarked) [Vanillyl 8-methyldecanoate, vanillyl 8-methyldecanoate] |  | about the same degree of activity as capsiate | ◯ | Remarks: disappearance of the vasodilating effect (conchae of hairless mice; 5 weight percent application): disappeared in about two hour
5 | COc1cc(COC(=O)CCCCCCC(C)C)ccc1O [Dihydrocapsiate, 4-hydroxy-3-methoxybenzyl 8-methylnonanoate] |  |  | ◯ | Vasodilating effect, 1 wt % (conchae of hairless mice): Δ; Remarks: weak red spots still caused after (conchae of hairless mice; 5 weight percent application): caused even after 90 minutes
6 | CCCCCCCCCCCCCCCCCC(=O)OCc1ccc(O)c(OC)c1 [Vanillyl octadecanoate] | No vasodilating effect |  |  | 
7 | CCCCCCCCCCCC(=O)OCc1ccc(O)c(OC)c1 [Vanillyl dodecanoate] | No vasodilating effect |  |  | 
8 | COc1cc(COC(=O)CCCCCC(C)C)ccc1O [Nordihydrocapsiate, nordihydrocapsiate] |  |  | ◯ | Vasodilating effect, 1 wt % (conchae of hairless mice): Δ; Remarks: weak red spots still caused after (conchae of hairless mice; 5 weight percent application): caused even after 90 minutes
9 | CCCCCCCCCCCCC(=O)OCc1ccc(O)c(OC)c1 [Vanillyl tridecanoate] | No vasodilating effect |  |  | 
10 | CCCCCCCCCCCCCCC(=O)OCc1ccc(O)c(OC)c1 [Vanillyl pentadecanoate] |  |  |  | Remarks: dissolution in liquid paraffin [1]: Not dissolved
11 | CCCCCCCCCC(=O)OCc1ccc(O)c(OC)c1 [Vanillyl decanoate, 4-hydroxy-3-methoxybenzyl decanoate (caprate)] |  | about the same degree of activity as capsiate | ◯ | Remarks: disappearance of the vasodilating effect (conchae of hairless mice; concentration not given): Vasodilating effect disappeared in about one hour
12 | CCC(C)CCCCCC(=O)OCc1ccc(O)c(OC)c1 (centres unmarked) [Vanillyl 7-methylnonanoate, vanillyl 7-methylnonanoate] |  | about the same degree of activity as capsiate | ◯ | Remarks: disappearance of the vasodilating effect (conchae of hairless mice; 5 weight percent application): disappeared in about two hour
13 | COc1cc(CO)ccc1O [Vanillyl alcohol, reference compound] | No vasodilating effect |  |  | 
14 | COc1cc(CNC(=O)CCCC/C=C/C(C)C)ccc1O [Capsaicin, capsaicin, reference compound] |  |  | ◯ | Remarks: red spots still caused after (conchae of hairless mice; 1 weight percent application): even after two hours; Persistence of red spots (conchae of hairless mice; 1 weight percent dispersed in liquid paraffin): retained their original form even after two hours; Development of red spots (visual evaluation) (conchae of hairless mice; 1 weight percent in liquid paraffin, applied on ear): red spots were observed; Vasodilating effect, 1 wt % (conchae of hairless mice): ◯; Development of red spots (visual evaluation) (conchae of hairless mice; 5 weight percent in liquid paraffin, 30 minutes after application): clear red spots were observed
15 | CCCCCCCC/C=C\CCCCCCCC(=O)OCc1ccc(O)c(OC)c1 [Vanillyl oleate] | No vasodilating effect |  |  | 
16 | COc1cc(COC(=O)CCCCCCCC(C)C)ccc1O [Vanillyl 9-methyldecanoate, vanillyl 9-methyldecanoate] |  | about the same degree of activity as capsiate | ◯ | Remarks: disappearance of the vasodilating effect (conchae of hairless mice; 5 weight percent application): disappeared in about two hour
17 | COc1cc(COC(=O)CCCC/C=C/C(C)C)ccc1O [Capsiate, 4-hydoxy-3-methoxybenzyl (E)-8-methyl-6-nonenoate] |  |  | ◯ | Vasodilating effect, 1 wt % (conchae of hairless mice): Δ; Remarks: weak red spots still caused after (conchae of hairless mice; 5 weight percent application): caused even after 90 minutes
18 | CCC(C)CCCCC(=O)OCc1ccc(O)c(OC)c1 (centres unmarked) [Vanillyl 6-methyloctanoate, vanillyl 6-methyloctanoate] |  | about the same degree of activity as capsiate | ◯ | Remarks: disappearance of the vasodilating effect (conchae of hairless mice; 5 weight percent application): disappeared in about two hour
19 | CCCCCCCCCCC(=O)OCc1ccc(O)c(OC)c1 [Vanillyl undecanoate, vanillyl undecanoate] |  | about the same degree of activity as capsiate | ◯ | Remarks: disappearance of the vasodilating effect (conchae of hairless mice; concentration not given): the effect disappeared more quickly than for C10.
